12 compounds from patent publication US20260356856A1, “KRAS G12S AND G12C INHIBITORS” (MIRATI THERAPEUTICS, INC., priority 2023, published 2026) can be followed below.

The term IC50 denotes the concentration needed to halve the response being measured.

One test addresses T1, KRas WT (Homo sapiens, UniProt P01116).
T1 construct: Biotinylated KRas (corresponding to amino acids 1-169, produced at Accelegan Inc.); biotin (biotinylated); purchased Accelegan Inc
In words: KRas binding assay, TR-FRET displacement of Cy5 labelled tracer. Conditions: 60-minute incubation at room temperature, 1% DMSO, pH 7.5. In outline:
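Truncated KRas (1-169), biotinylated, Tb-streptavidin donor; one-hour room-temperature incubation; IC50 by four-parameter curve fitting.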
(In TR-FRET formats the signal depends on donor and acceptor labels being close together.)

The next test has as its target T2, KRas G12S (Homo sapiens, UniProt P01116, G12S).
T2 construct: Biotinylated KRas (corresponding to amino acids 1-169, produced at Accelegan Inc.); biotin (biotinylated); purchased Accelegan Inc
Described as above. Conditions: 60-minute incubation at room temperature, 1% DMSO, pH 7.5. In outline: (§1)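 Biotinylated KRas (residues 1-169) was incubated with tracer, terbium-streptavidin and compound at 1% DMSO final in 50 mM HEPES pH 7.5 containing 5 mM MgCl2, 0.005% Tween-20 and 1 mM DTT. The plate was read after 60 min at room temperature, and percent-of-control data were fit to a 4-parameter IC50 equation.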

The target in another test is T3, KRas G12C (Homo sapiens, UniProt P01116, G12C).
T3 construct: Biotinylated KRas (corresponding to amino acids 1-169, produced at Accelegan Inc.); biotin (biotinylated); purchased Accelegan Inc
The test is described as above. Particulars: 60-minute incubation at room temperature, 1% DMSO, pH 7.5. In outline:
as §1

For test [1], the target named is T4, KRas-mediated phosphorylation of ERK in A549 cells (Homo sapiens, UniProt P01116, G12S).
T4 construct: pERK HTRF read-out
Description: Inhibition of KRas-mediated phosphorylation of ERK (HTRF), A549 cells. The class given is cell-based. Particulars: HTRF pERK, 3 h incubation.

For test [2], the target named is T5, KRas-mediated phosphorylation of ERK in MKN1 cells (Homo sapiens, UniProt P01116).
T5 construct: pERK HTRF read-out
In words: Inhibition of KRas-mediated phosphorylation of ERK (HTRF), MKN1 cells. The class given is cell-based. Conditions: MKN1 cells (KRas WT); HTRF pERK; 3 h incubation. As to the method: Inhibition of KRas Phosphorylation of ERK (HTRF) by Exemplary Compounds of Formula (Ia) or (Ib)
Cisbio HTRF Advanced pERK Assay Catalog #64AERPEH • Cells: MKN1, PSN1 • Procedure: • 1. Day 1: Seed 6,000 cells/well −25 μl/well in 384-well white solid bottom plate; RPM1_10% FBS. Incubate overnight at 37 °C/5% CO2. • 2.

The target in test [3] is T6, KRas-mediated phosphorylation of ERK in H358 cells (Homo sapiens, UniProt P01116, G12C).
T6 construct: pERK HTRF read-out
Description: Inhibition of KRas-mediated phosphorylation of ERK (HTRF), H358 cells. The class given is cell-based. Conditions: HTRF pERK, 3 h incubation.

T5 sequence (P01116 1-188 isoform P01116-2): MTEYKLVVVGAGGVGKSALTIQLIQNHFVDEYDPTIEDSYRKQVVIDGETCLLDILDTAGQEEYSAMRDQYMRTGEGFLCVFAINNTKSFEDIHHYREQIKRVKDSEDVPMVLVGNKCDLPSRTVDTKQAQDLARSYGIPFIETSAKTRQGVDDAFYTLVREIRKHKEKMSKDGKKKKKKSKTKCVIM
T3 sequence (P01116 1-169 isoform P01116-2 G12C): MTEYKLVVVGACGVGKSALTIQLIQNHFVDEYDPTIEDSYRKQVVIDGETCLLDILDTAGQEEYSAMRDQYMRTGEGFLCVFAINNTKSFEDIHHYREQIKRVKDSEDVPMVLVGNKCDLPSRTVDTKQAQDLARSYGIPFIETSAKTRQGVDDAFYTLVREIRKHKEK
T4 sequence (P01116 1-188 isoform P01116-2 G12S): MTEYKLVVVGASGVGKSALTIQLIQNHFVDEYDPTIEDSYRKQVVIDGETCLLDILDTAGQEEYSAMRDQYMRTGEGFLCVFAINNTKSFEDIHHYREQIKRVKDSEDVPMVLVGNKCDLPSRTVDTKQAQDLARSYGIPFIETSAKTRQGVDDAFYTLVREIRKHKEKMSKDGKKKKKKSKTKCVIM
T6 sequence (P01116 1-188 isoform P01116-2 G12C): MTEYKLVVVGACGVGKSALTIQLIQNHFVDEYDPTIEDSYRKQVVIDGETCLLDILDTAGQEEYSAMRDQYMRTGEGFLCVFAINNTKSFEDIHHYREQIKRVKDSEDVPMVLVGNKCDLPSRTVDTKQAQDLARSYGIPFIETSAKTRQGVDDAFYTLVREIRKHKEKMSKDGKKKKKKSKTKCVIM
T1 sequence (P01116 1-169 isoform P01116-2): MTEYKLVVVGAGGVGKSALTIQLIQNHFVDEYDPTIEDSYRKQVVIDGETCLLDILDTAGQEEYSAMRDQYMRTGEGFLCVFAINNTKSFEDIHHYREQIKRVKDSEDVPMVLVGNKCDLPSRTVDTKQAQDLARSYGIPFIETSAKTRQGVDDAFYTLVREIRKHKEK
T2 sequence (P01116 1-169 isoform P01116-2 G12S): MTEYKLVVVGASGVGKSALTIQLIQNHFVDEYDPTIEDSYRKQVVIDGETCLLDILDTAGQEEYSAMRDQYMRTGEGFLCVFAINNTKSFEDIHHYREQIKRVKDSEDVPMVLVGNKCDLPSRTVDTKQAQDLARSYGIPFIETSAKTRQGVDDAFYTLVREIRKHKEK

As to `CCc1c(F)ccc2cc(O)cc(-c3ncc4c(N(C)CCC(C)C(=O)N(C)C(C)=O)nc(OC[C@@]56CCCN5C[C@H](F)C6)nc4c3F)c12` (stereo partly drawn) [Example 284, N-acetyl-4-((7-(8-ethyl-7-fluoro-3-hydroxynaphthalen-1-yl)-8-fluoro-2-(((2R,7aS)-2-fluorotetrahydro-1H-pyrrolizin-7a(5H)-yl)methoxy)pyrido[4,3-d]pyrimidin-4-yl)(methyl)amino)-N,2-dimethylbutanamide], the IC50 on KRas WT was determined as 77 nM; on KRas G12S it was 5 nM; at KRas G12C, 8 nM; in test [1], 7 nM; in test [2], 446 nM; in test [3], 39 nM.
As for `CCc1c(F)ccc2cc(O)cc(-c3ncc4c(N5CCC(C(=O)n6ccc(C(C)(C)C)n6)CC5)nc(OC[C@@]56CCCN5C[C@H](F)C6)nc4c3F)c12` [Example 75, (3-(tert-butyl)-1H-pyrazol-1-yl)(1-(7-(8-ethyl-7-fluoro-3-hydroxynaphthalen-1-yl)-8-fluoro-2-(((2R,7aS)-2-fluorotetrahydro-1H-pyrrolizin-7a(5H)-yl)methoxy)pyrido[4,3-d]pyrimidin-4-yl)piperidin-4-yl)methanone], the IC50 was 378 nM on KRas WT; 346 nM at KRas G12S; 234 nM at KRas G12C; 312 nM in test [1]; 1390 nM in test [2]; 3110 nM in test [3].
Consider `N#Cc1c(N)sc2c(F)ccc(-c3c(Cl)cc4c(N5CCC(C(=O)Oc6ccccc6Cl)CC5)nc(OC[C@@]56CCCN5C[C@H](F)C6)nc4c3F)c12` [Example 298, 2-chlorophenyl 1-(7-(2-amino-3-cyano-7-fluorobenzo[b]thiophen-4-yl)-6-chloro-8-fluoro-2-(((2R,7aS)-2-fluorotetrahydro-1H-pyrrolizin-7a(5H)-yl)methoxy)quinazolin-4-yl)piperidine-4-carboxylate], for which the IC50 at KRas WT is 154 nM; on KRas G12S, 80 nM; at KRas G12C, 17 nM; in test [1], 169 nM; in test [2], 217 nM; in test [3], 16 nM.
With `N#Cc1c(N)sc2c(F)ccc(-c3c(Cl)cc4c(N5CCN(S(=O)(=O)n6ccnn6)CC5)nc(OC[C@@]56CCCN5C[C@H](F)C6)nc4c3F)c12` [Example 252, 4-(4-(4-((1H-1,2,3-triazol-1-yl)sulfonyl)piperazin-1-yl)-6-chloro-8-fluoro-2-(((2R,7aS)-2-fluorotetrahydro-1H-pyrrolizin-7a(5H)-yl)methoxy)quinazolin-7-yl)-2-amino-7-fluorobenzo[b]thiophene-3-carbonitrile], the IC50 amounted to 39 nM at KRas WT; 77 nM at KRas G12S; 48 nM on KRas G12C; 806 nM in test [1]; 156 nM in test [2]; 391 nM in test [3].
Take `CCc1c(F)ccc2cc(O)cc(-c3ncc4c(N5CC[C@H]6[C@@H](C5)[C@H]6C(=O)N(C)C(C)=O)nc(OC[C@@]56CCCN5C[C@H](F)C6)nc4c3F)c12` [Example 278, (1R,6S)-N-acetyl-3-(7-(8-ethyl-7-fluoro-3-hydroxynaphthalen-1-yl)-8-fluoro-2-(((2R,7aS)-2-fluorotetrahydro-1H-pyrrolizin-7a(5H)-yl)methoxy)pyrido[4,3-d]pyrimidin-4-yl)-N-methyl-3-azabicyclo[4.1.0]heptane-7-carboxamide]: the IC50 at KRas WT came to 41 nM; at KRas G12S, 48 nM; at KRas G12C, 58 nM; in test [1], 292 nM; in test [2], 217 nM; in test [3], 1180 nM.
In the case of `CON(C)C(=O)C1CCN(c2nc(OC[C@@]34CCCN3C[C@H](F)C4)nc3c(F)c(-c4ccc(F)c5sc(N)c(C#N)c45)c(Cl)cc23)CC1` [Example 242, 1-(7-(2-amino-3-cyano-7-fluorobenzo[b]thiophen-4-yl)-6-chloro-8-fluoro-2-(((2R,7aS)-2-fluorotetrahydro-1H-pyrrolizin-7a(5H)-yl)methoxy)quinazolin-4-yl)-N-methoxy-N-methylpiperidine-4-carboxamide], the IC50 at KRas WT came to 8 nM; at KRas G12S, 12 nM; at KRas G12C, 14 nM; in test [1], 240 nM; in test [2], 17 nM; in test [3], 149 nM.
`Cc1ccn(C(=O)C2CCN(c3nc(OC[C@@]45CCCN4C[C@H](F)C5)nc4c(F)c(-c5ccc(F)c6sc(N)c(C#N)c56)c(Cl)cc34)CC2)n1` [Example 133, 2-amino-4-(6-chloro-8-fluoro-2-(((2R,7aS)-2-fluorotetrahydro-1H-pyrrolizin-7a(5H)-yl)methoxy)-4-(4-(3-methyl-1H-pyrazole-1-carbonyl)piperidin-1-yl)quinazolin-7-yl)-7-fluorobenzo[b]thiophene-3-carbonitrile]: the IC50 at KRas WT came out at 17 nM; at KRas G12S it was 7 nM; on KRas G12C it was 17 nM; in test [1] it was 7 nM; in test [2], 105 nM; in test [3], 20 nM.
Regarding `CC(=O)N(C)C(=O)CCCN(C)c1nc(OC[C@@]23CCCN2C[C@H](F)C3)nc2c(F)c(-c3ccc(F)c4sc(N)c(C#N)c34)c(Cl)cc12` (atropisomer, axis not shown; (aS)) [Example 260, N-acetyl-4-(((S)-7-(2-amino-3-cyano-7-fluorobenzo[b]thiophen-4-yl)-6-chloro-8-fluoro-2-(((2R,7aS)-2-fluorotetrahydro-1H-pyrrolizin-7a(5H)-yl)methoxy)quinazolin-4-yl)(methyl)amino)-N-methylbutanamide], the IC50 at KRas WT is 4 nM; on KRas G12S, less than 2 nM; at KRas G12C, less than 2 nM; in test [1], 6 nM; in test [2], 36 nM; in test [3], 18 nM.
On to `N#Cc1c(N)sc2c(F)ccc(-c3c(Cl)cc4c(N5CCC(C(=O)Oc6ccccc6)CC5)nc(OC[C@@]56CCCN5C[C@H](F)C6)nc4c3F)c12` [Example 287, phenyl 1-(7-(2-amino-3-cyano-7-fluorobenzo[b]thiophen-4-yl)-6-chloro-8-fluoro-2-(((2R,7aS)-2-fluorotetrahydro-1H-pyrrolizin-7a(5H)-yl)methoxy)quinazolin-4-yl)piperidine-4-carboxylate], for which the IC50 on KRas WT was 170 nM; on KRas G12S, 16 nM; at KRas G12C, 6 nM; in test [1] it was 104 nM; in test [2] it was 360 nM; in test [3], 13 nM.
`CN(CCCC(=O)N(C)c1ccncn1)c1nc(OC[C@@]23CCCN2C[C@H](F)C3)nc2c(F)c(-c3ccc(F)c4sc(N)c(C#N)c34)c(Cl)cc12` [Example 268, 4-((7-(2-amino-3-cyano-7-fluorobenzo[b]thiophen-4-yl)-6-chloro-8-fluoro-2-(((2R,7aS)-2-fluorotetrahydro-1H-pyrrolizin-7a(5H)-yl)methoxy)quinazolin-4-yl)(methyl)amino)-N-methyl-N-(pyrimidin-4-yl) butanamide]: the IC50 at KRas WT came out at 11 nM; at KRas G12S, 9 nM; at KRas G12C, 5 nM; in test [1] it was 266 nM; in test [2], 205 nM; in test [3] it was 75 nM.
As for `N#Cc1c(N)sc2c(F)ccc(-c3c(Cl)cc4c(N5CCC[C@H](C(=O)n6ccc(C7CC7)n6)CC5)nc(OC[C@@]56CCCN5C[C@H](F)C6)nc4c3F)c12` [Example 216, 2-amino-4-(6-chloro-4-((S)-4-(3-cyclopropyl-1H-pyrazole-1-carbonyl)azepan-1-yl)-8-fluoro-2-(((2R,7aS)-2-fluorotetrahydro-1H-pyrrolizin-7a(5H)-yl)methoxy)quinazolin-7-yl)-7-fluorobenzo[b]thiophene-3-carbonitrile], the IC50 stood at 22 nM at KRas WT; 3 nM at KRas G12S; 4 nM on KRas G12C; 2 nM in test [1]; 71 nM in test [2]; 5 nM in test [3].
For `N#Cc1c(N)sc2c(F)ccc(-c3c(Cl)cc4c(N5CCN(S(=O)(=O)n6nccn6)CC5)nc(OC[C@@]56CCCN5C[C@H](F)C6)nc4c3F)c12` [Example 229, 4-(4-(4-((2H-1,2,3-triazol-2-yl)sulfonyl)piperazin-1-yl)-6-chloro-8-fluoro-2-(((2R,7aS)-2-fluorotetrahydro-1H-pyrrolizin-7a(5H)-yl)methoxy)quinazolin-7-yl)-2-amino-7-fluorobenzo[b]thiophene-3-carbonitrile], the IC50 is 161 nM on KRas WT; 631 nM on KRas G12S; 586 nM on KRas G12C; greater than 10000 nM in test [1]; 333 nM in test [2]; greater than 10000 nM in test [3].
